Measurements reported in patent publication US20150184166A1 (Uinversity of Iowa Research Foundation, priority 2012, published 2015).

Key:
NdmC = experiment: N-demethylation by NdmC fraction co-purified with reductase; assay type: biochemical, Pseudomonas putida CBB5
Text: This activity was neither associated with NdmA nor with NdmB. […] Cloning of NdmC has proven difficult; nevertheless based on the fact that purified His6-NdmD had no activity on 7-methylxanthine, we annotate orf 8 as aanother RO with highly specific N-7 demthylase activity.

His6-NdmD = His6-NdmD (Pseudomonas putida, UniProt H9N291); experiment: N-demethylation by purified His6-NdmD alone; assay type: biochemical, Pseudomonas putida CBB5
Protocol: (§1) Methylxanthine N-demethylase activity assay contained, in 1-ml total volume, 0.5 mM methylxanthine, 1 mM NADH, 50 μM Fe(NH4)2(SO4)2, and an appropriate amount of NdmA-His6 or NdmB-His6 (7.4 μg-2.5 mg protein depending on substrate specificity) in 50 mM KPi buffer (pH 7.5). Approximately 4 U of partially purified reductase, prepared as described previously (Summers et al., 2011) or 59 U of purified His6-NdmD was added to reaction mixture. Catalase from bovine liver (4,000 U) was also added to reactions containing His6-NdmD. The reaction mixture was incubated at 30° C. with 300 rpm shaking on an incubating microplate shaker (VWR, Radnor, Pa.). Periodically, a small aliquot was sampled from the reaction mixture and mixed with equal volume of acetonitrile for quantifying concentrations of methylxanthines and N-demethylated products by HPLC. One unit of N-demethylase activity was defined as the consumption of one […] methylxanthine per minute.

NdmB-His6 = NdmB-His6 (Pseudomonas putida, UniProt H9N290); experiment: Kinetic parameters of NdmB-His6 with His6-NdmD; assay type: biochemical, Pseudomonas putida CBB5
Protocol: as §1
(§2) Apparent kinetic parameters of NdmA-His6 and NdmB-His6 were determined by measuring the initial rate of disappearance (vo) of methylxanthines in 50 mM KPi buffer (pH 7.5) at 30° C. The initial substrate concentrations ([S]) used in these experiments were from 25 to 500 μM. Substrates were incubated with His6-NdmD plus either NdmA-His6 or NdmB-His6 under standard conditions for 15 minutes. At 1, 5, 10, and 15 minutes, samples were removed from the reaction mixtures to quantitate substrate concentrations by HPLC. Plots of substrate concentrations against time were used to determine the initial rates of disappearance of substrates which were linear over 15 minutes. The apparent kinetic parameters were determined from Michaelis-Menten plots of vo against [S] fitted with the equation

[1] = system: Ndm (methylxanthine N-demethylase) with Ccr reductase
NdmA-His6 = molecular target: T1, NdmA-His6 (Pseudomonas putida, UniProt H9N289); experiment: Kinetic parameters of NdmA-His6 with His6-NdmD; assay type: biochemical, Pseudomonas putida CBB5
T1 sequence (H9N289 1-351): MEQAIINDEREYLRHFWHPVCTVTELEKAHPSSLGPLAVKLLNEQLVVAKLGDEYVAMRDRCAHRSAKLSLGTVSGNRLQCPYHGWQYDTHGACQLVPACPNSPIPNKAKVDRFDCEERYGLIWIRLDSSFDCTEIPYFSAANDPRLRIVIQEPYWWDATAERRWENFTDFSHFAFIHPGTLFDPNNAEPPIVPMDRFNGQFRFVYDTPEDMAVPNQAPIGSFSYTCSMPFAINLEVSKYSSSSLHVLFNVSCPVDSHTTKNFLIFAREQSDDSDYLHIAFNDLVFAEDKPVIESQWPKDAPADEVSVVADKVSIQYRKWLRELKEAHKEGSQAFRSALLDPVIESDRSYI
Protocol: as §1, §2

[2] = molecular target: T2, Ndm, two-subunit N-demethylase component purified from Pseudomonas putida CBB5 (UniProt H9N289)
T2 sequence 1: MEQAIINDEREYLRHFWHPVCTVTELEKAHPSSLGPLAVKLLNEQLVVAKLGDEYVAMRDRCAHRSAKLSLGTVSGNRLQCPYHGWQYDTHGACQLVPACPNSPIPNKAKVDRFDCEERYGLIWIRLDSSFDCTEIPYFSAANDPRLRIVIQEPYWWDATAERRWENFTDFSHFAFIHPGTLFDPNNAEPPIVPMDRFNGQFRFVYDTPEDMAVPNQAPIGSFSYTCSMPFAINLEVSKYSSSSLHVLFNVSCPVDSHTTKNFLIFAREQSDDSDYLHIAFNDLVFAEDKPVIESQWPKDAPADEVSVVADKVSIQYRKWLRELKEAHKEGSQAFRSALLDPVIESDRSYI
T2 sequence 2: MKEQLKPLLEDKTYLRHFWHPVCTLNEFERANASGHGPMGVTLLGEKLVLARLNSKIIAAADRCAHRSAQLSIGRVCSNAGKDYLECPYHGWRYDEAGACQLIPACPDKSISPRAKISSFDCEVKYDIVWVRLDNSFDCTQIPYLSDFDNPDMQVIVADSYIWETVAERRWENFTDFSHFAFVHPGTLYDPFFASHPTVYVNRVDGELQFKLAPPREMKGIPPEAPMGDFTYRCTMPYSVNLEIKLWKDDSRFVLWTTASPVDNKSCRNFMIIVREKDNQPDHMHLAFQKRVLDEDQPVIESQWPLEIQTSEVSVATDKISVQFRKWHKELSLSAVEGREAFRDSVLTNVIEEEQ

Ccr = Ccr (Pseudomonas putida, UniProt H9N291); experiment: NAD(P)H:cytochrome c oxidoreductase (Ccr) activity; assay type: biochemical, Pseudomonas putida CBB5
Protocol: NADH:cytochrome c oxidoreductase (cytochrome c reductase, Ccr) activity was determined as described by Ueda et al. (1972). A typical 1-mL reaction contained 300 μM NADH, 87 μM bovine cytochrome c (type III; Sigma), and 1-20 μg CBB5 protein (depending on purity) in 50 mM KPi buffer. The activity was determined by monitoring the increase in absorbance at 550 nm due to reduction of […] cytochrome c at 30° C. An extinction coefficient of 21,000 M^−1 cm^−1 for reduced minus oxidized cytochrome c was used for quantitating the activity. One unit of activity was defined as one μmol of cytochrome c reduced per minute.

NdmB-His6, H9N290 = molecular target: T3, NdmB-His6, H9N290
T3 chain: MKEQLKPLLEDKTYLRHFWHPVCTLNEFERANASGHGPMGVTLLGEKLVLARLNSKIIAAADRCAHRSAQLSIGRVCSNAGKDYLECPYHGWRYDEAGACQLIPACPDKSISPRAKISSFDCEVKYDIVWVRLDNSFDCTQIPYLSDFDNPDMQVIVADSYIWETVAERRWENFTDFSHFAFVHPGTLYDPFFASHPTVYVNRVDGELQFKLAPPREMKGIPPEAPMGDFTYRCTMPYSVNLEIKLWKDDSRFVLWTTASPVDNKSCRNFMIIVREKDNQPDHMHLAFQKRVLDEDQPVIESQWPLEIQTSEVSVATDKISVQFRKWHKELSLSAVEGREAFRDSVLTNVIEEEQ

NdmA-His6, H9N289 = molecular target: T4, NdmA-His6, H9N289
T4 chain: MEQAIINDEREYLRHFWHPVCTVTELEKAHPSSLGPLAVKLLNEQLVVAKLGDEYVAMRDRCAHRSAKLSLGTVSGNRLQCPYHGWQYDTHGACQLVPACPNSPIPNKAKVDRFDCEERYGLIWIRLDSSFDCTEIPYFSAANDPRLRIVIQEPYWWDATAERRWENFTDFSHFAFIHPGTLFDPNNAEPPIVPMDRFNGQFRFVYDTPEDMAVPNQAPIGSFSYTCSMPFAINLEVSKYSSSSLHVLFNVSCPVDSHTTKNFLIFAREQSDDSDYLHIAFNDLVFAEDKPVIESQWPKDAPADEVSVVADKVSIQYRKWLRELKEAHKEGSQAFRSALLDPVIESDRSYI

[3] = substrate: Cn1c(=O)c2[nH]cnc2n(C)c1=O; experiment: Kinetic parameters of NdmA-His6 with His6-NdmD; assay type: biochemical, Pseudomonas putida CBB5; conditions: other: NdmA-His6 plus His6-NdmD, pH 7.5, 30° C.
Protocol: as §1
Apparent kinetic parameters of NdmA-His6 and NdmB-His6 were determined by measuring the initial rate of disappearance (vo) of methylxanthines in 50 mM KPi buffer (pH 7.5) at 30° C. […] At 1, 5, 10, and 15 minutes, samples were removed from the reaction mixtures to quantitate substrate concentrations by HPLC. […] The apparent kinetic parameters were determined from Michaelis-Menten plots of vo against [S] fitted with the equation

[4] = molecular target: T5, NdmB, 35 kDa subunit of N-demethylase Ndm purified from Pseudomonas putida CBB5 (Pseudomonas putida CBB5, UniProt H9N290 1-355); experiment: gel filtration of purified native Ndm (single symmetric peak, about 240 kDa), fractions checked by SDS-PAGE
T5 construct: Native protein purified from CBB5; Rieske [2Fe-2S] non-heme iron oxygenase; also called 35 kDa-protein
T5 sequence (looked up): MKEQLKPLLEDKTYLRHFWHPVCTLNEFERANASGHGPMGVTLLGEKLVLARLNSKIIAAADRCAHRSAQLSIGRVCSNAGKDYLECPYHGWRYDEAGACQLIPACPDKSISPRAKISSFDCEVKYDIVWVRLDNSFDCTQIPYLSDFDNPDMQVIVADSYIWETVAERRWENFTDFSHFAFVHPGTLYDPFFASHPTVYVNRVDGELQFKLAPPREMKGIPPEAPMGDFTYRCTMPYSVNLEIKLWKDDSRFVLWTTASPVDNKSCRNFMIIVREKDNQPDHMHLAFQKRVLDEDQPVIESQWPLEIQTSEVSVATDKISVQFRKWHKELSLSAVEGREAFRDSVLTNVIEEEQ

## Cn1cnc2[nH]c(=O)[nH]c(=O)c21 [7-Methylxanthine, 7-methylxanthine]
NdmC
  N-demethylation by NdmC/reductase fraction: specifically N-demethylated
His6-NdmD
  activity of purified His6-NdmD: no activity
NdmB-His6
  N-demethylation activity of NdmB: no activity
NdmB-His6; NdmB-His6 plus His6-NdmD, pH 7.5, 30° C.
  Km: ∞
[1]; 90 minutes, 7.4 mU (7.4 units) of Ndm
  product formed from paraxanthine: 126.9 ± 6.4 µM
[1]; from paraxanthine, after 13 minutes
  N-demethylation product present: Approximately 39.9 μM
[1]; read-out: apparent KM, saturating Ccr, 50 μM Fe2+, 30° C., 50 mM KPi pH 7.5
  Km: 63.8 ± 7.5 µM
[1]; saturating Ccr, 50 μM Fe2+, 30° C., 50 mM KPi pH 7.5
  apparent kcat: 1.58 ± 0.05 s⁻¹
NdmA-His6
  N-demethylation activity of NdmA: inactive
NdmA-His6; NdmA-His6 plus His6-NdmD, pH 7.5, 30° C.
  Km: ∞

## Ccr, partially purified cytochrome c reductase component of Pseudomonas putida CBB5
[2]
  N-demethylase activity: No N-demethylase activity was observed when purified Ndm was assayed without the Ccr fraction

## NC(=O)C1=CN([C@@H]2O[C@H](COP(=O)(O)OP(=O)(O)OC[C@H]3O[C@@H](n4cnc5c(N)ncnc54)[C@H](OP(=O)(O)O)[C@@H]3O)[C@@H](O)[C@H]2O)C=CC1 [NADPH]
Ccr
  Ccr activity relative to that with NADH: 22%

B1: His6-NdmD (protein)
chain: HHHHHHSSGLVPRGSHMNKLDVNQWFPIATTEDLPKRHVFHATLLGQEMAIWRDDSGSVNAWENRCPHRGLRLTLGANTGNELRCQYHGWTYESGTGGCTFVPAHRDAPPPNAARVNTFPVREKHGFIWTTLGQPPGEPISILDDAQLVNAVKTNLHSVVIDADIDGVVSVLRQNLSAFIDVFGAASAEDLHLKSMLQDRGILVTRSGSIAIHFYMQRSTISKCVVHAQVLTPGRPGYELQKNYSYAMNVIRRAAEAVATDLISITDISDQTIEKLEVVRENMTKAPPTHYICEVVTRTQETGDINSYWLKPIGYPLPAFSPGMHISITTPEGSIRQYSLVNGPDERESFIIGVKKEIQSRGGSRSMHEDVKVGTQLKVTLPRNGFPLVQTRKHPILVAGGIGITPILCMAQALDQQGSSYEIHYFARAFEHVPFQDRLTALGDRLNVHLGLGPDETRAKLPDIMEIHNAQDVDVYTCGPQPMIETVSAVALAHGIAEESIRFEFFSKKNDVPVSDEEYEVELKKTGQIFTVSPGSTLLQACLDNDVRIEASCEQGVCGTCITPVVSGDLEHHDTYLSKKERESGKWIMPCVSRCKSKKIVLDL
NdmB-His6, H9N290
  N-demethylation of theobromine to 7-methylxanthine (HPLC): NdmB-His6 with His6-NdmD, theobromine, NADH, and Fe^2+ resulted in stoichiometric demethylation at N3 of theobromine to 7-methylxanthine
NdmA-His6, H9N289
  N-demethylation of caffeine to theobromine (HPLC): when NdmA-His6 was incubated with His6-NdmD, caffeine, NADH, and exogenous Fe^2+, caffeine was stoichiometrically demethylated at N1 to theobromine

B2: NdmA, 40 kDa subunit of N-demethylase Ndm purified from Pseudomonas putida CBB5 (enzyme, UniProt H9N289 1-351, looked up)
chain: MEQAIINDEREYLRHFWHPVCTVTELEKAHPSSLGPLAVKLLNEQLVVAKLGDEYVAMRDRCAHRSAKLSLGTVSGNRLQCPYHGWQYDTHGACQLVPACPNSPIPNKAKVDRFDCEERYGLIWIRLDSSFDCTEIPYFSAANDPRLRIVIQEPYWWDATAERRWENFTDFSHFAFIHPGTLFDPNNAEPPIVPMDRFNGQFRFVYDTPEDMAVPNQAPIGSFSYTCSMPFAINLEVSKYSSSSLHVLFNVSCPVDSHTTKNFLIFAREQSDDSDYLHIAFNDLVFAEDKPVIESQWPKDAPADEVSVVADKVSIQYRKWLRELKEAHKEGSQAFRSALLDPVIESDRSYI
notes: Native protein purified from CBB5; Rieske [2Fe-2S] non-heme iron oxygenase; also called 40 kDa-protein
[3]
  Km: 91. μM
[4]
  binding result: binds
